Results taken from ChEMBL document CHEMBL1201862, “PubChem BioAssay data set” (2004).
The source made the active and inactive calls. Where a SMILES comes first, the peptide text is derived from it. [ ]: non-standard residue; d: D form. The star is where a group is joined. ξ: configuration not given here. ξNMe2Val = CC(C)C(C(=O)*)N(C)C; NMeV = CN[CH](C(=O)O)C(C)C; NHBn = c1ccc(CN*)cc1

How the values were obtained:
[1] = human group III sPLA2 inhibitors, dose response, biochemical, QFRET, IC50 (AID 743457);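 also: green fluorescence rise as the enzyme cleaves BODIPY PC-A2 in liposomes; potency for inhibition of the enzyme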
[2] = target: T1, Nuclear receptor subfamily 0 group B member 1 (Homo sapiens, UniProt P51843); assay type: functional, cell-based;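 also: HEK293T cells transfected with SF-1 and DAX-1 plus StAR promoter luciferase reporter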
T1 sequence (P51843 whole entry): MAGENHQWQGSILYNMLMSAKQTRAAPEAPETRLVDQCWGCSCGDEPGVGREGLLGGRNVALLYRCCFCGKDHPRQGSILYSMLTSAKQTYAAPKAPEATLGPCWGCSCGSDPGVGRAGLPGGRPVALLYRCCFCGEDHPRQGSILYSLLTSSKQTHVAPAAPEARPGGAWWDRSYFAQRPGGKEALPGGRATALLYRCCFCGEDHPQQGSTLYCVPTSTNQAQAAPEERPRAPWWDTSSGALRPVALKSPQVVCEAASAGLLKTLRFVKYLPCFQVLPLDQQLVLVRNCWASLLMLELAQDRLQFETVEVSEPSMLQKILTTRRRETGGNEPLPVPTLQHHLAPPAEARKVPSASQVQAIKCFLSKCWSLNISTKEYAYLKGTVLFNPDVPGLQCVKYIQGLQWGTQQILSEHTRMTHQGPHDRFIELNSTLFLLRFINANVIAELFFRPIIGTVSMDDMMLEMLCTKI

cells = assay type: functional, cell-based
[3] = HeLa 4N DNA content increase, dose response, cell-based, IC50 (AID 1117351); assay type: functional
[4] = HeLa 2N DNA content increase, dose response, cell-based, IC50 (AID 1117349); assay type: functional
[5] = target: T2, Long-chain-fatty-acid--AMP ligase FadD28 (Mycobacterium tuberculosis, UniProt P9WQ59); test: Fluorescence polarization aasay to screen for inhibitors that compete for the binding of FadD28 to a bisubstrate Measured in Biochemical System Using Plate Reader - 2147-01_Inhibitor_Dose_CherryPick_Activity.; assay type: functional, Mycobacterium tuberculosis H37Rv
T2 sequence (P9WQ59 whole entry): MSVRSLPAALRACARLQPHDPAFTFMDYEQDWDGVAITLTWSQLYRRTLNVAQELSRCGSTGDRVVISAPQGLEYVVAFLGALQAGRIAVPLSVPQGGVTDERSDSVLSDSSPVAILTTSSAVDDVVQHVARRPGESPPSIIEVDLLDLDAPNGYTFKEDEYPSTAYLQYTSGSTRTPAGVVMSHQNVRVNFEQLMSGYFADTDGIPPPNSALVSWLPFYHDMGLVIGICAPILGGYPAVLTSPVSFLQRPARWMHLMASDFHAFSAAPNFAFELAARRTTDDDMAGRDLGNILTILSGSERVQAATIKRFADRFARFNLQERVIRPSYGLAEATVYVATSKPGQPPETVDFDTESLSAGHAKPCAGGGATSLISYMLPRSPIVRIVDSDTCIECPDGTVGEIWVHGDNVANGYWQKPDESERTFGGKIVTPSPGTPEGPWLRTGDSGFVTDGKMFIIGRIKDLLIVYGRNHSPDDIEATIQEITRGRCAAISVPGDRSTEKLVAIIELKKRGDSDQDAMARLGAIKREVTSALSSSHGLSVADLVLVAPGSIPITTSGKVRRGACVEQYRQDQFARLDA

Beta-galactosidase = Beta-galactosidase (Escherichia coli, UniProt Q8VNN2); test: Dose response counterscreen for EBI2 assay utilizing the enzyme, b-galactosidase.; assay type: functional
[6] = P. falciparum Dd2 growth inhibitors, dose response, SYBR Green, cherry-picked samples (AID 1159567); assay type: functional, cell-based
[7] = P. falciparum 3D7-ScDHODH growth inhibitors, dose response, SYBR Green, dry powder samples (AID 1159570); assay type: functional, cell-based;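 also: parasite growth measured after 72 hours of compound exposure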
[8] = P. falciparum ATP4 D1247Y mutant growth inhibitors, dose response, NITD609-resistant line, SYBR Green, dry powder (AID 1159571); assay type: functional, cell-based;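 also: parasites synchronized at ring stage by sorbitol before testing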
[9] = HepG2 cell cytotoxicity, dose response, cytotoxicity control, plate reader, dry powder samples (AID 1159569); assay type: functional, cell-based;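 also: inhibitor potency with signal falling toward the positive control level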
[10] = P. falciparum Dd2 growth inhibitors, dose response, SYBR Green, dry powder samples (AID 1159566); assay type: functional, cell-based;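 also: potency for growth inhibition with lower SYBR green DNA signal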
[11] = target: T3, Methionyl-tRNA synthetase, putative (Trypanosoma brucei brucei, UniProt Q38C91); assay type: functional, Trypanosoma brucei brucei strain 927/4 GUTat10.1
T3 sequence (Q38C91 whole entry): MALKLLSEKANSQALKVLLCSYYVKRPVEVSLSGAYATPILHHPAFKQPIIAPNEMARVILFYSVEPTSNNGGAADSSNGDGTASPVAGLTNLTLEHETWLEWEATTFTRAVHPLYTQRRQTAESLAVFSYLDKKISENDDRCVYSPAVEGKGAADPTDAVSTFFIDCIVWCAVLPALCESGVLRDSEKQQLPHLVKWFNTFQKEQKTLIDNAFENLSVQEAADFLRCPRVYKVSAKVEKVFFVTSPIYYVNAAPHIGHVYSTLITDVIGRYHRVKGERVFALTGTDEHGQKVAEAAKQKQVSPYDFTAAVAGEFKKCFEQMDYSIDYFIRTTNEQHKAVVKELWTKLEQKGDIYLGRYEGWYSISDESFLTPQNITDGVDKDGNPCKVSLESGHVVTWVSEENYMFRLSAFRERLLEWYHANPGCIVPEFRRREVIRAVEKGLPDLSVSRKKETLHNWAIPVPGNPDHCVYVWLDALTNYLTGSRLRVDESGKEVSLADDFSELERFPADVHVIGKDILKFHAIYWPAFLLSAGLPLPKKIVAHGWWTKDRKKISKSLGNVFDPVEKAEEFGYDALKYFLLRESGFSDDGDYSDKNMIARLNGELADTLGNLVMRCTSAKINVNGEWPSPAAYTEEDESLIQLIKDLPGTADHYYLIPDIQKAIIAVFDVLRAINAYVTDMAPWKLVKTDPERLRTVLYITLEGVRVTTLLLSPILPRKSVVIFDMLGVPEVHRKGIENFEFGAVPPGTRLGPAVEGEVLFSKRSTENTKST

[12] = Counterscreen for inhibitors of Trypanosoma brucei methionyl tRNA synthetase (MetRS): Luminescence-based cell-based high throughput dose response assay to identify compounds that are cytotoxic to Jurkat human T lymphocyte cells.; assay type: functional
Caspase-6 = target: T4, Caspase-6 (Homo sapiens, UniProt P55212); test: human caspase-6 inhibitors, dose response, biochemical, VEID-R110 fluorescence, cherry-pick (AID 720632)
T4 sequence (P55212 whole entry): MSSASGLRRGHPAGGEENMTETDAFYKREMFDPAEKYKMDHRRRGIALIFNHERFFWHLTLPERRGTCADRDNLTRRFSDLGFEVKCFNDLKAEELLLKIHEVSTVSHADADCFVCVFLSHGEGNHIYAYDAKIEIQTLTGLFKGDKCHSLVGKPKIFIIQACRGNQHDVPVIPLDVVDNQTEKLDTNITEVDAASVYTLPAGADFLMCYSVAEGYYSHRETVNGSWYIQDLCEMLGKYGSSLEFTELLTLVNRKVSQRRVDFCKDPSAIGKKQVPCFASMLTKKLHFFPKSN

[13] = ZM109 Env clade C HIV-1 fusion inhibitors, dose response, HeLa effector, CEM target cells, luciferase, cherry-pick (AID 652058); assay type: functional, cell-based
[14] = inhibitors of clade B AD8 Env fusion, dose response, cell-based, cherry-pick (AID 652062); assay type: functional;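 also: luciferase signal from cell-cell fusion driven by HIV-1 clade B AD8 Env; potency is for inhibitors of fusion seen as a drop in luminescence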
[15] = target: T5, Disintegrin and metalloproteinase domain-containing protein 17 (Homo sapiens, UniProt P78536); test: exosite inhibitors of ADAM17, dose response, biochemical (AID 743260)
[16] = ADAM10 inhibitors, peptide cleavage, dose response, biochemical, QFRET (AID 743254);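 also: ADAM10 enzyme with the DM2 quenched FRET peptide as substrate; EDANS fluorescence gain as the protease cuts the substrate; inhibitor potency against ADAM10 proteolytic activity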
[17] = target: FAD-linked sulfhydryl oxidase ALR (Homo sapiens, UniProt P55789); test: inhibitors of human ALR sulfhydryl oxidase, dose response, biochemical, H2O2 detection, luminescence, cherry-pick (AID 493248)
[18] = ADAM10 protease inhibitors, dose response, selectivity assay for ADAM17 exosite inhibitor project, biochemical, FRET peptide substrate, recombinant human ADAM10 (AID 743259);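 also: ADAM10 enzyme cleaving a FRET peptide substrate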
[19] = target: T5, Disintegrin and metalloproteinase domain-containing protein 17; test: ADAM17 protease inhibitors, dose response, counter-screen for ADAM10 exosite inhibitor project, biochemical, quenched FRET substrate (AID 743253)
[20] = inhibitors of HIV Env-driven cell fusion, dose response, cherry-pick (AID 652057); assay type: functional, cell-based
Genome polyprotein = Genome polyprotein (dengue virus type 2, UniProt P29990); test: Dengue-2 NS5 methyltransferase inhibitors, primary screen, biochemical, confirmation dose response (AID 588689); assay type: functional
[21] = inhibitors of PGC1a acetylation in cells, dose response, cell-based, cherry-picked samples (AID 720514); assay type: functional;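 also: potency may reflect raised or lowered acetylation signal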
Streptococcus = test: Group A Streptococcus viability loss, dose response, counter-screen for streptokinase expression inhibitor project, luminescence, BacTiterGlo (AID 1915); assay type: functional, organism-based;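 also: potency for reduction of bacterial viability or growth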
Streptokinase A = target: T6, Streptokinase A (Streptococcus pyogenes serotype M1, UniProt P10520); test: S. pyogenes streptokinase expression inhibitors, potency, dose response, plasminogen activation absorbance, OD405 (AID 1914); assay type: functional, Streptococcus pyogenes M1 GAS;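 also: secreted streptokinase activity via plasminogen activation per viability signal from cell pellet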
T6 sequence (P10520 whole entry): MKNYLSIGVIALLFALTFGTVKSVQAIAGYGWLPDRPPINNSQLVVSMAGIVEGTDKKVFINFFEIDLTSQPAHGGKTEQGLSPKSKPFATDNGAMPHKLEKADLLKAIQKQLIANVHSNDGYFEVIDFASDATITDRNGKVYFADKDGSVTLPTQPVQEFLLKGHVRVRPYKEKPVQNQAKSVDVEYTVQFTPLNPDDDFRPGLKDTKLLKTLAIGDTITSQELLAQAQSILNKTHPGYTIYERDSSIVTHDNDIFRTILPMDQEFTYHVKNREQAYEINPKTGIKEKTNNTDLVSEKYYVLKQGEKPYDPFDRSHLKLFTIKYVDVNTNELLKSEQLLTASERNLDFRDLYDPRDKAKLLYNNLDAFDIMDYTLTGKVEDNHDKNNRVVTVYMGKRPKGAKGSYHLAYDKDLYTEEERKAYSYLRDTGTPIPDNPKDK

[22] = tested on: Streptococcus sp. 'group A'; test: growth inhibition of control SK(-) GAS strain, dose response, counter-screen for streptokinase expression inhibitor project, luminescence, kanamycin, BacTiterGlo, confirmation (AID 1900); assay type: functional, organism-based
[23] = Luminescence Cell-Based Dose Retest to Confirm Inhibitors of Cancer Stem Cells. [Related pubchem assays (depositor defined):AID2717, AID2721]; assay type: functional; conditions: Homo sapiens
[24] = HEp-2 cell cytotoxicity, dose response, cytotoxicity control for RSV inhibitor project, HTS (AID 2410); assay type: functional; conditions: human respiratory syncytial virus

Chain of Beta-galactosidase (Q8VNN2 whole entry): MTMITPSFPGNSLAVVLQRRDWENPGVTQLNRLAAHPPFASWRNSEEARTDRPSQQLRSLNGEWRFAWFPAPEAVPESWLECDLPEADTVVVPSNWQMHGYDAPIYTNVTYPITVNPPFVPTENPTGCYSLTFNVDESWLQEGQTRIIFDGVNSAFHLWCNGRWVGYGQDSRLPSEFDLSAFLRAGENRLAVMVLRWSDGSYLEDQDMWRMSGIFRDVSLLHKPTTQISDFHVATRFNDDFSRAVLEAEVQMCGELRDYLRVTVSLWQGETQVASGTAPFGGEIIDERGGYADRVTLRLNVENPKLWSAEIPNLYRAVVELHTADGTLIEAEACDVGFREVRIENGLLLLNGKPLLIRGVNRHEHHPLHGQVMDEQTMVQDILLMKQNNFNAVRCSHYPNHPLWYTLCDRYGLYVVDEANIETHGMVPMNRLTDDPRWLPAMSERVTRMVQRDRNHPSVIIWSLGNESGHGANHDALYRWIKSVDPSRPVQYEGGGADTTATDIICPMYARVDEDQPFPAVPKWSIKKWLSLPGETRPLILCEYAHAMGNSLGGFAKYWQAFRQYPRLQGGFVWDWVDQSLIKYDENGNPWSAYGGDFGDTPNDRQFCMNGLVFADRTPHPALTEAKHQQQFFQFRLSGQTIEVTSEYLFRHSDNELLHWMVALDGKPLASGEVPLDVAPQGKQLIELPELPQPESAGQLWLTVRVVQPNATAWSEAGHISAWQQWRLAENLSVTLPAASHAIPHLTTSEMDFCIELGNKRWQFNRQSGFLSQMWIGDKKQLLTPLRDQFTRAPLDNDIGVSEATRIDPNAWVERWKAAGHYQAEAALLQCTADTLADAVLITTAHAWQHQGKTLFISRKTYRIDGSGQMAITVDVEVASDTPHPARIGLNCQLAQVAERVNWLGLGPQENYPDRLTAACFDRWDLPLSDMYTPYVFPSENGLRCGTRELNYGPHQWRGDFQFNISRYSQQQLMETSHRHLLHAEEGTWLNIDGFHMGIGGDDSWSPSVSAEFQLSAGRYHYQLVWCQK
Chain of FAD-linked sulfhydryl oxidase ALR (P55789 whole entry): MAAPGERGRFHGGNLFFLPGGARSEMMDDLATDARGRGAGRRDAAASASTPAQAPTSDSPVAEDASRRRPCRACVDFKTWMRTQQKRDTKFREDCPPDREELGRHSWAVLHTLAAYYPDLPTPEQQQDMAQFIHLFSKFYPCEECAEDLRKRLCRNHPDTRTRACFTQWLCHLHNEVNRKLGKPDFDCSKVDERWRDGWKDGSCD
T5 sequence (P78536 whole entry, the tested form may be a part): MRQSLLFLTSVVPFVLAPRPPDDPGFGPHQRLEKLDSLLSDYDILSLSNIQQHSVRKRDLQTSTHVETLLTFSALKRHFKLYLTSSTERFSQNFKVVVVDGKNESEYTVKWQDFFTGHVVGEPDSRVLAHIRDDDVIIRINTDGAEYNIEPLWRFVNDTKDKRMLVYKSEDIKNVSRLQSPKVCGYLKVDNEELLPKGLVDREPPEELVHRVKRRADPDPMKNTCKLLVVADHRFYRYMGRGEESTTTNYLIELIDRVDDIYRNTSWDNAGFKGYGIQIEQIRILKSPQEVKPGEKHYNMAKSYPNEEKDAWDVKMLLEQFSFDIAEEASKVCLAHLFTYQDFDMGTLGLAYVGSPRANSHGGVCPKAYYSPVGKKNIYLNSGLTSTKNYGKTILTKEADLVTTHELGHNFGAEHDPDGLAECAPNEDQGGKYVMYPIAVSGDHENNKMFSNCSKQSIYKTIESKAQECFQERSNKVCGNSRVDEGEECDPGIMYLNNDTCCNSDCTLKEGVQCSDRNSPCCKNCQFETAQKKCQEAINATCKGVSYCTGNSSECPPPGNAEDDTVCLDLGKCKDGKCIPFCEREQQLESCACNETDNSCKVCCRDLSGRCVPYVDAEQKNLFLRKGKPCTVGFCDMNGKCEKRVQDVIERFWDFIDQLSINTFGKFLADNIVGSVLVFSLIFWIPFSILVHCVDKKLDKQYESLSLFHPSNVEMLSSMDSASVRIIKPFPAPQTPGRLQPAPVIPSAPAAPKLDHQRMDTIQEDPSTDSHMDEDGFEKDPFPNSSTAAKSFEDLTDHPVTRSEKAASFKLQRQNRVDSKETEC
Chain of Genome polyprotein (P29990 2492-3391 limits assumed): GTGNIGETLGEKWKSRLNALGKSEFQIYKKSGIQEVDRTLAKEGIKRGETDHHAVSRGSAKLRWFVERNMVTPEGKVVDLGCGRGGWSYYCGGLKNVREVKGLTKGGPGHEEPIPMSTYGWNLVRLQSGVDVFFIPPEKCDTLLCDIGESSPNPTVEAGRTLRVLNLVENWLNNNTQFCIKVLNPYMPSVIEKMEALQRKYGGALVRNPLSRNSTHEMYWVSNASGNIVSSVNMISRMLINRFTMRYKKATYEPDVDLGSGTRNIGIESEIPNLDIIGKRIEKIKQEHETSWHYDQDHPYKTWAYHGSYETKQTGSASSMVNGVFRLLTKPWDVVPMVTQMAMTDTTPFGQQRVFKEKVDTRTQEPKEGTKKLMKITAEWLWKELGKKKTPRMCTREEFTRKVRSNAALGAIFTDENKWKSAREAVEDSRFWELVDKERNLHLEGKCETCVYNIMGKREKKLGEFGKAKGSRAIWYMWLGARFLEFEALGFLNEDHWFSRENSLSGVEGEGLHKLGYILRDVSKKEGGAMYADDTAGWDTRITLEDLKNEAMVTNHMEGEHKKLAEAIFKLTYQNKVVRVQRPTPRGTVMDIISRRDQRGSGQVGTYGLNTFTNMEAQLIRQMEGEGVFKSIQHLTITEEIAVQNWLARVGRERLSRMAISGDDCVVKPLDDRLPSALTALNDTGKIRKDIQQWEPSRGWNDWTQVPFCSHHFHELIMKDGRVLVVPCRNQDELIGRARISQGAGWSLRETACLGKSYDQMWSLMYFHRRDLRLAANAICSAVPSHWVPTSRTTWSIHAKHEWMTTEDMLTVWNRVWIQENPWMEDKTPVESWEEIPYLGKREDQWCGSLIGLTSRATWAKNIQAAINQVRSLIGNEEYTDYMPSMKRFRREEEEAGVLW

## Cc1c(Cl)c(C(=O)NN=C(S)Nc2ccc(F)cc2)nn1C
[1]
  IC50: > 122 µM (inactive)

## CC(C)C(NC(=O)C(C(C)C)N(C)C)C(=O)N(C)C(C(=O)N1CCCC1C(=O)N1CCCC1C(=O)NCc1ccccc1)C(C)C (centres undefined) (ξNMe2Val-V[NMeV]PP-NHBn; configuration not given here)
[2]
  IC50: > 67.5 µM (inactive)
cells
  IC50: > 67.5 µM (inactive)

## Cc1ccc(Nc2nccc(N(C)c3ccc4c(C)n(C)nc4c3)n2)cc1S(N)(=O)=O [PAZOPANIB]
[3]
  IC50: > 10 µM (inactive)
[4]
  IC50: > 10 µM (inactive)

## O=C(CNc1ccc(Cl)cc1)NNC(=S)NCc1ccccc1
[1]
  IC50: > 122 µM (inactive)

## CC(NC(=O)c1ccc2[nH]cnc2c1)c1ccccc1 (centres undefined)
[5]
  AC50: 22.7 µM (active)

## CC(C)Nc1ncnc2c1ncn2[C@H]1CN(Cc2ccc(Cl)cc2)C[C@@H](CO)O1
Beta-galactosidase
  IC50: > 80 µM (inactive)

## CCCN(C)C[C@H]1Oc2ncc(C#Cc3ccc(F)cc3)cc2C(=O)N([C@@H](C)CO)C[C@H]1C
[6]
  AC50: 2.37 µM (active)
[7]
  AC50: 2.14 µM (active)
[8]
  AC50: 1.23 µM (active)
[9]
  AC50: 24.3 µM (active)
[10]
  AC50: 1.24 µM (active)

## COc1cc(OC)c(OC)cc1/C=N/Nc1nc2ccccc2[nH]1
[11]
  IC50: 119 µM (inactive)
[12]
  IC50: 83.3 µM (inactive)

## Cc1ccc(S(=O)(=O)N2C[C@@H]3N[C@H](C2)[C@H]3c2ccc(-c3ccncc3)cc2)cc1
[6]
  AC50: 1.37 µM (active)
[7]
  AC50: 1.26 µM (active)
[8]
  AC50: 1.67 µM (active)
[9]
  AC50: 82.3 µM (active)
[10]
  AC50: 1.03 µM (active)

## O=C(CCc1nc(O)c2c3c(sc2n1)CCCC3)NCC(=O)Nc1ccccc1Br
Caspase-6
  AC50: 26.8 µM (active)

## O=C1C=C(c2ccc3ncccc3c2)C[C@@H](c2ccc(Cl)cc2)C1
Beta-galactosidase
  IC50: > 80 µM (inactive)

## Cc1cc(Nc2cccc(C(F)(F)F)c2)cc(=O)n1-c1cccc(C(F)(F)F)c1
[13]
  AC50: 1.85 µM (active)
[14]
  AC50: 9.49 µM (active)

## O=C(NO)c1ccc(OC(F)F)cc1
[15]
  IC50: 29.5 µM (inactive)
[16]
  IC50: 37 µM (inactive)
[17]
  AC50: 4.38 µM (active)
[18]
  IC50: 40.2 µM (inactive)
[19]
  IC50: 36.5 µM (inactive)

## C[C@H](CO)N1C[C@H](C)[C@H](CN(C)S(=O)(=O)c2ccc(Cl)cc2)Oc2ccc(NC(=O)Nc3ccc4c(c3)OCO4)cc2C1=O
[13]
  AC50: 6.18 µM (active)
[14]
  AC50: 13.7 µM (active)
[20]
  AC50: 2.11 µM (active)

## O=C(O)c1ccc(Nc2nc3ccccc3nc2NS(=O)(=O)c2ccc(F)cc2)cc1
[17]
  AC50: > 100 µM (inactive)
[5]
  AC50: 62.1 µM (active)
Genome polyprotein
  IC50: 24.9 µM (active)

## O=S(=O)(c1ccc(Cl)cc1)N1CCN(Cc2nc(O)c3ccc(Cl)cc3n2)CC1
Beta-galactosidase
  IC50: > 80 µM (inactive)

## Oc1ccc(/C=N/Nc2nc(-c3ccc(Cl)cc3)cc(C(F)(F)F)n2)cc1
[21]
  AC50: 31.7 µM (active)
Streptococcus
  EC50: > 150 µM (not active)
Streptokinase A
  EC50: 16.3 µM (active)
[22]
  EC50: 12.1 µM (active)
[23]
  AC50: 4.06 µM (active)
[24]
  CC50: 13.4 µM (active)

## CC(C)(C)OC(=O)N1CCC(C(=O)Nc2ccc3c(c2)CCC3)CC1
[2]
  IC50: > 67.5 µM (inactive)
cells
  IC50: > 67.5 µM (inactive)
